The results in this text go back to paper PMC9030254, “Target Hopping from Protein Kinases to PXR: Identification of Small-Molecule Protein Kinase Inhibitors as Selective Modulators of Pregnane X Receptor from TüKIC Library” (Cells, 2022).

Data set [1] concerns the target T1, PXR LBD (Homo sapiens, UniProt O75469).
T1 construct: GAL4-DBD/PXR(132–188); VP16-AD/PXR(189–434); expressed in transfected cells; host or cells: HepG2
T1 sequence (O75469 132-188): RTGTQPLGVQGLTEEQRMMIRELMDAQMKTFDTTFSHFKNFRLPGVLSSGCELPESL
T1 sequence (O75469 189-434): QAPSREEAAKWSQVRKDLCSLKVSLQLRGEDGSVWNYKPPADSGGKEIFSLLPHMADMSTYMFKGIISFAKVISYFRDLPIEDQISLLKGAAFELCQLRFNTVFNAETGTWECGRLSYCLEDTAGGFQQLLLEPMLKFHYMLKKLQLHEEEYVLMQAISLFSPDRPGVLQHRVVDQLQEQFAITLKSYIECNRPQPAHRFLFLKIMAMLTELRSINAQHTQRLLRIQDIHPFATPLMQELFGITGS
The data set can be described thus: Mammalian two-hybrid PXR LBD assembly assay. The class given is cell-based. The conditions noted are these: HepG2, 10 µM, 24 h. The method, then:
For the mammalian two-hybrid PXR ligand-binding domain assembly assay, 0.24 µg pGL4-G5, 0.01 µg pMetLuc2control, and 0.03 µg each of expression plasmids encoding GAL4-DBD/PXR(132–188) and VP16-AD/PXR(189–434) fusion proteins were used per well. Otherwise, batch transfection was performed as above with HepG2 cells.
Figure 5 PXR binding of phenylaminobenzosuberones is indicated by cellular PXR LBD assembly assay and inhibition of LBP-filled PXR mutant (A) Novel compounds induce PXR LBD assembly. […] (B) Effects of novel compounds on LBP-filled PXR mutant. HepG2 cells were transiently transfected with CYP3A4 reporter and expression plasmid encoding PXR(S208W/S247W/C284W) and treated as described above. […] Statistically significant differences are illustrated with asterisks. ** p ˂ 0.01, compared to respective treatments with DMSO analyzed by repeated measures one-way ANOVA with Dunnett’s multiple comparisons test.

Data set [2] has as its target T2, CAR1 (Homo sapiens, UniProt Q14994).
T2 construct: expressed in transfected cells; host or cells: HepG2
T2 sequence (Q14994 1-348 isoform Q14994-2): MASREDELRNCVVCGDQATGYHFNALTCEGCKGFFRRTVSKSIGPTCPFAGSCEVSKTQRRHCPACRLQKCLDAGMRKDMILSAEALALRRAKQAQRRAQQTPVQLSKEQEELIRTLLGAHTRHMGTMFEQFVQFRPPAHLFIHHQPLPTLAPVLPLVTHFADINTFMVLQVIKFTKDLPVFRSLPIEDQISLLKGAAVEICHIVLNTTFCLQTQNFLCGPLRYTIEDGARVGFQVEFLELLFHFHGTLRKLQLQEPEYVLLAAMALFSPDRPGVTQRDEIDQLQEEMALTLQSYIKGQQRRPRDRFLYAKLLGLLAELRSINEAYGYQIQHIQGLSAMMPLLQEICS
The data set can be described thus: Nuclear receptor selectivity reporter assay, CAR1. The class given is cell-based. Particulars: HepG2, 10 µM. The method, then:
(§1) For testing nuclear receptor selectivity and LBP-filled PXR mutant activation, transient batch transfection was conducted as above, but with HepG2 cells and the following plasmids, with amounts per well of 0.23–0.27 µg pGL4-CYP3A4(-7830Δ7208-364) or pGL3(DR3)3Tk (as reporter for VDR), 0.01 µg pMetLuc2control, and 0.03 µg either CAR1, CAR3, VDR, or PXR(S208W/S247W/C284W) expression plasmids. In addition, 0.03 µg RXRα expression plasmid was added to CAR3 transfections. Metridia luciferase activity was measured from 10 µL of medium supernatant after adding 100 µL Renilla luciferase assay solution.
(§2) Figure 6 Selectivity of novel PXR ligands within the NR1I group of nuclear receptors. HepG2 cells were transiently transfected with CYP3A4 reporter and expression plasmids encoding (A) CAR1 or (B) CAR3, or (C) direct repeat (DR3)3 reporter and expression plasmid encoding VDR. Cells were treated with 0.2% DMSO or 10 µM chemicals as indicated. 1α,25(OH)2D3 was used at 1 µM.
(In general: A reporter such as luciferase makes a cellular process visible.)

Data set [3] addresses T3, VDR (Homo sapiens, UniProt P11473).
T3 construct: expressed in transfected cells; host or cells: HepG2
T3 sequence (P11473 1-427): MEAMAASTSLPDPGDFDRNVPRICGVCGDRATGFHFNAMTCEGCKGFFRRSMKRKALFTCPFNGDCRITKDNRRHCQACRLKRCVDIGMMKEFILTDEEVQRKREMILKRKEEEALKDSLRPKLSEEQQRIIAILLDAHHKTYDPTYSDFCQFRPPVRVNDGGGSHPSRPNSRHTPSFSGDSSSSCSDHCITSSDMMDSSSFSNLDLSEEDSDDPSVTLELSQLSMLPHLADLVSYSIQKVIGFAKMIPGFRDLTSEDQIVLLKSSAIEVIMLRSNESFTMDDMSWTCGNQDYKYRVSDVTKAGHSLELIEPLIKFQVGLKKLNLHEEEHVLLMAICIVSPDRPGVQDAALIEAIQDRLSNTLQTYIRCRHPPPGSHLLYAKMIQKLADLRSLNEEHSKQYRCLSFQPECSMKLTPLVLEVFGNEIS
Nature of the data set: Nuclear receptor selectivity reporter assay, VDR. The data set is classed as cell-based. Particulars: for reduction of ligand-induced VDR activation: HepG2, 10 µM compound + 1 µM 1α,25(OH)2D3. The protocol: as §1, §2

For data set [4], the system named is ABCB1. The data set can be described thus: PXR target gene mRNA expression in LS174T cells (RT-qPCR). The conditions noted are these: for effect on rifampicin-mediated induction of ABCB1: 10 µM compound + 10 µM rifampicin, 72 h; for expression of ABCB1 mRNA: 10 µM single treatment, 48 h (109) or 72 h (73, 100). Background: Real-time PCR tracks product formation cycle by cycle.
Experimental: (§3) In chemical treatments, phenol red-free DMEM was used, and regular FBS was replaced by dextran-coated charcoal-treated FBS. For gene expression analyses, 0.3 × 10^6 LS174T cells were seeded per well of a 12-well plate. The next day, chemical treatment was initiated for 48–72 h, with daily medium change.
(§4) Total RNA was prepared from LS174T and HepaRG cells using the NucleoSpin RNA kit (Macherey-Nagel, Düren, Germany). RNA integrity was analyzed by formaldehyde-agarose gel electrophoresis. First strand cDNA was synthesized as described earlier [37]. Relative quantification analyses were conducted with TaqMan RT-PCR utilizing the BioMark HD system and FLEX Six Gene Expression Integrated Fluidic Circuits (Fluidigm, South San Francisco, CA, USA) as described previously [34]. TaqMan gene expression assays were either the commercially available predesigned assays Hs00184500_m1 (ABCB1) and Hs00604506_m1 (CYP3A4) (Thermo Fischer Scientific) or have been described previously: CYP2B6 [31] and 18S rRNA [39]. Data were analyzed as described previously [37]. Gene expression levels were normalized to respective 18S rRNA levels.

Data set [5] deals with CYP3A4. Described as above. Particulars: 10 µM single treatment, 48 h (109) or 72 h (73, 100).
Experimental: as §3, §4

In the case of `Cc1ccc(NC(=O)Cc2ccccc2)cc1Nc1ccc2c(c1)CCCCC2=O` [Compound 73], the “assembly of the PXR LBD” value in data set [1] is given as “induced the assembly of the PXR LBD”. Besides, the “suppression of constitutive activity of CAR1” value in data set [2] came out at 30%. Besides, in data set [3] (HepG2, 10 µM), the “activation of VDR on their own” value is “Neither CAR3 nor VDR were activated”. Also, in data set [3], the “reduction of ligand-induced VDR activation” value is 51%. In data set [4], the “effect on rifampicin-mediated induction of ABCB1” value is “suppressed its rifampicin-mediated induction” and the “expression of ABCB1 mRNA” value is reported as “not induced”. The “expression of CYP3A4 mRNA” value in data set [5] is recorded as “induced CYP3A4 expression, which was comparable to induction by rifampicin”.

In the case of `O=C(Cc1ccccc1)Nc1ccc(F)c(Nc2ccc3c(c2)CCCCC3=O)c1` [Compound 100], the “assembly of the PXR LBD” value in data set [1] is “induced the assembly of the PXR LBD”. The “suppression of constitutive activity of CAR1” value in data set [2] stood at 30%. Moreover, in data set [3] (HepG2, 10 µM), the “activation of VDR on their own” value is “Neither CAR3 nor VDR were activated”. Further, the “reduction of ligand-induced VDR activation” value in data set [3] is listed as “no respective effects”. Also, in data set [4], the “effect on rifampicin-mediated induction of ABCB1” value is given as “suppressed its rifampicin-mediated induction” and the “expression of ABCB1 mRNA” value was “not induced”. Besides, the “expression of CYP3A4 mRNA” value in data set [5] was “induced CYP3A4 expression, which was comparable to induction by rifampicin”.

Consider `O=C(Nc1ccc(F)c(Nc2ccc3c(c2)CCCCC3=O)c1)c1cccc(F)c1` [Compound 109], for which, in data set [1], the “assembly of the PXR LBD” value was “induced the assembly of the PXR LBD”. Also, the “activation of CAR1” value in data set [2] was “did not reach statistical significance”. In data set [3] (HepG2, 10 µM), the “activation of VDR, % of the effect of 1α,25-dihydroxy vitamin D3” value is reported as 5%. For the same molecule, in data set [4], the “expression of ABCB1 mRNA” value is given as “induced to a lesser extent than by rifampicin”. In addition, the “expression of CYP3A4 mRNA” value in data set [5] was “induced both genes”.
